Data: the supplement of paper PMC10307832

Columns and labels:
Experiment in all cases: relative viability (nuclei count vs DMSO), 5 days (fraction); higher = more cells survive
[1] = compound: CC1=C(C(=NN1)C)CC2=C(C3=C(S2)N(C(=O)N(C3=O)C)CC(C)C)C(=O)N4C[C@@H](CO4)O + CC1(C)CCC(c2ccc(Cl)cc2)=C(CN2CCN(c3ccc(C(=O)NS(=O)(=O)c4ccc(N[C@H](CCN5CCOCC5)CSc5ccccc5)c(S(=O)(=O)C(F)(F)F)c4)cc3)CC2)C1 [Navitoclax] (partner 0.5 µM)
How it was run: (§1)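 Relative viability divides the nuclei count in treated wells by that in vehicle wells. Lung cancer cell lines were seeded in 1536-well plates, dosed by pin tool the next day, and fixed and stained after 5 days in one step with final 0.05% Triton X-100, 1% formaldehyde and 1 ug/ml Hoechst. Dosing was a single drug or a fixed anchor-drug dose plus five library-drug doses (not always all listed) in √10 steps, and values are medians of duplicate plates imaged at 4×.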

[2] = compound: CC1=C(C(=NN1)C)CC2=C(C3=C(S2)N(C(=O)N(C3=O)C)CC(C)C)C(=O)N4C[C@@H](CO4)O + CS(=O)(=O)CCNCc1ccc(-c2ccc3ncnc(Nc4ccc(OCc5cccc(F)c5)c(Cl)c4)c3c2)o1 [Lapatinib] (partner 2 µM)
How it was run: as §1

IDH-C35 + Luminespib = compound: Cc1ccccc1C(C(=O)NC1CCCCC1)N(C(=O)Cn1ccnc1C)c1cccc(F)c1 [IDH-C35] + CCNC(=O)c1noc(-c2cc(C(C)C)c(O)cc2O)c1-c1ccc(CN2CCOCC2)cc1 [Luminespib] (partner 0.01 µM)
How it was run: as §1

IDH-C35 + Dasatinib = compound: Cc1ccccc1C(C(=O)NC1CCCCC1)N(C(=O)Cn1ccnc1C)c1cccc(F)c1 [IDH-C35] + Cc1nc(Nc2ncc(C(=O)Nc3c(C)cccc3Cl)s2)cc(N2CCN(CCO)CC2)n1 [Dasatinib] (partner 0.075 µM)
How it was run: as §1

Cell Line | relative viability ([1]; first compound 0.0025 µM) | relative viability ([1]; first compound 0.007906 µM) | relative viability ([1]; first compound 0.025 µM) | relative viability ([1]; first compound 0.07906 µM) | relative viability ([1]; first compound 0.25 µM) | relative viability ([2]; first compound 0.0025 µM) | relative viability ([2]; first compound 0.007906 µM) | relative viability ([2]; first compound 0.025 µM) | relative viability ([2]; first compound 0.07906 µM) | relative viability ([2]; first compound 0.25 µM) | relative viability (IDH-C35 + Luminespib; first compound 0.08 µM) | relative viability (IDH-C35 + Luminespib; first compound 0.253 µM) | relative viability (IDH-C35 + Luminespib; first compound 0.8 µM) | relative viability (IDH-C35 + Luminespib; first compound 2.53 µM) | relative viability (IDH-C35 + Luminespib; first compound 8 µM) | relative viability (IDH-C35 + Dasatinib; first compound 0.08 µM) | relative viability (IDH-C35 + Dasatinib; first compound 0.253 µM) | relative viability (IDH-C35 + Dasatinib; first compound 0.8 µM) | relative viability (IDH-C35 + Dasatinib; first compound 2.53 µM) | relative viability (IDH-C35 + Dasatinib; first compound 8 µM)
NCI-H1734 | 0.843 | 1.1 | 0.772 | 0.931 | 1.02 | 1.19 | 1.11 | 1.02 | 0.986 | 0.812 | 0.193 | 0.215 | 0.214 | 0.19 | 0.191 | 0.469 | 0.524 | 0.511 | 0.458 | 0.419
NCI-H2126 | 0.852 | 0.877 | 0.882 | 0.829 | 0.826 | 0.816 | 0.739 | 0.78 | 0.741 | 0.739 | 0.841 | 0.858 | 0.892 | 0.897 | 0.883 | 0.6 | 0.651 | 0.596 | 0.605 | 0.588
EMC-BAC-2 | 1.16 | 1.14 | 1.16 | 1.16 | 1.38 | 0.604 | 0.987 | 0.907 | 0.861 | 0.957 | 1.18 | 1.18 | 1.18 | 1.14 | 1.14 | 0.355 | 0.346 | 0.348 | 0.298 | 0.281
NCI-H1993 | 0.949 | 0.959 | 0.92 | 0.94 | 0.925 | 0.856 | 0.809 | 0.744 | 0.745 | 0.947 | 0.793 | 0.882 | 0.914 | 0.836 | 0.936 | 0.654 | 0.53 | 0.577 | 0.559 | 0.621
